We go through 2 molecules from patent US12076304B2, “Compositions comprising 15-HEPE and methods of treating or preventing hematologic disorders, and/or related diseases” (priority 2020, dated 2024).

Entries after “also recorded” stand apart in the source; their conditions may differ.

The test system of one test is Collagen Type 1 mRNA. Nature of the test: UUO mice kidney quantitative RT-PCR, Collagen Type 1. In kind it is in vivo. The protocol: Quantitative RT-PCR: Total ribonucleic acid (RNA) was extracted from kidney samples using RNAiso (Takara Bio, Japan) according to the manufacturer's instructions. One μg of RNA was reverse-transcribed using a reaction mixture containing […] (mM) of magnesium chloride (MgCl2) (F. Hoffmann-La Roche, Switzerland), 40 U RNase inhibitor (Toyobo, Japan), 0.5 mM dNTP (Promega, USA), 6.28 μM random hexamer (Promega), 5× first strand buffer (Promega), 10 mM dithiothreitol (Invitrogen, USA) and 200 U MMLV-RT (Invitrogen) in a final volume of 20 μL. The reaction was carried out for 1 hour at 37° C., followed by 5 minutes at 99° C. Real-time PCR was performed using real-time PCR DICE and TB Green™ Premix Ex Taq™ II (Takara Bio). To calculate the relative […] (mRNA) expression level, the expression of each gene (e.g., α-SMA, TIMP-1, TGF-β and Collagen Type 1) was normalized to that of reference gene 36B4 (gene symbol: Rplp0). Information regarding the PCR-primer sets and the plate layout are described in Tables 1 and 2.

For test [1], the system named is cholestasis induced by BDL. Nature of the test: BDL mice: Sirius red staining of liver sections, fibrosis area. In kind it is in vivo. The following applies: for Sirius red-positive area: BDL mice liver, Day 14, mean ± SD, n = 8; for fibrosis area compared with the Vehicle group: BDL mice. The protocol: […]: To visualize collagen deposition, Bouin's fixed liver sections were stained using picro-Sirius red solution (Waldeck, Germany). For quantitative analysis of fibrosis area, bright field images of Sirius red-stained sections were captured using a digital camera (DFC295; Leica, Germany) at 100-fold magnification, and the positive areas in 5 fields/section were measured using ImageJ software (National Institute of Health, USA).

Test [2] has as its system NAFLD patients. Nature of the test: Phase IIa study in NAFLD patients: lipid profile and lipidomics. In kind it is in vivo, human. The following applies: for Triglycerides (median placebo-corrected % change from baseline): 2 g. As to the method: (§1) The study was planned to include 96 evaluable patients with 32 patients randomized per treatment group.
Clinical Laboratory Safety Tests: Safety tests were performed for hematology, serum biochemistry, coagulation, lipid profile, and urinalysis: Blood and urine samples were taken as per the Study Flow Chart in Table 19 for routine hematology, serum biochemistry, coagulation and urinalysis tests, along with a Lipid Profile. All samples were analyzed in the central laboratory. All subjects were fasted for a minimum of 8 hours prior to blood sampling. If subjects had not fasted for a minimum of 8 hours, the duration of fasting time was recorded, and subjects encouraged to fast appropriately for the next clinical visit. • Hematology: Full blood count to include red cell count, hemoglobin, hematocrit, white cell count, differential white cell count, platelet count and reticulocyte count. • Serum biochemistry: Urea (blood urea nitrogen; BUN), creatinine, uric acid, total bilirubin, Indirect and Direct Bilirubin, sodium, bicarbonate potassium, phosphorus, calcium chloride, alkaline phosphatase (ALP), aspartate aminotransferase (AST), alanine aminotransferase (ALT), ALT/AST ratio, lactate dehydrogenase (LDH), creatine phosphokinase (CPK), albumin, total protein, cholesterol, triglycerides, glucose, C-reactive protein (CRP). • Coagulation: prothrombin time (PT), international normalized ratio (INR) and activated partial […]. • Lipid Profile: LDL, HDL, and VLDL-C. • Urinalysis: pH, protein, glucose, blood, ketones, leukocytes, leukocyte esterase, bilirubin, specific gravity, urobilinogen and nitrate. Reflex micro if blood, protein, leukocyte esterase or nitrate/nitrite are present.
Exploratory analysis: The exploratory analysis included analysis of lipid and metabolic parameters including total cholesterol, triglycerides, very low-density lipoprotein cholesterol (VLDL-C), low density lipoprotein cholesterol (LDL-C), high density lipoprotein cholesterol (HDL-C), non-high-density lipoprotein cholesterol (non-HDL-C), remnant-like particle cholesterol (RLP-C), fasting glucose, insulin, free fatty acids and hemoglobin A1C (HbA1C). Additional exploratory analysis included high throughput lipidomics and proteomics.

In test [3] the test system is NAFLD patients. Nature of the test: Phase IIa study in NAFLD patients: hepatic fat by CAP. In kind it is in vivo, human. The following applies: 16 weeks. The protocol:
as §1
Liver stiffness and CAP: Liver stiffness and CAP were assessed using transient elastography (e.g., FibroScan® 502 Touch model or equivalent). Patients were fasted and scanned at the same time of the day, if possible, for baseline (Week 0) and Visit 10 (Week 16). For this assessment the following conditions were met: patients were lying in dorsal decubitus position with the right arm in maximal abduction behind the head, in a similar position to that used for liver biopsy (LB); the tip of the transducer was placed on the skin between the ribs over the right lobe of the liver (the physician took the measurements with the probe placed in the intercostal space); during the FibroScan® examination the choice of M+ or XL+ probe was determined by the Automatic Probe Selection tool (APS) (If, the APS tool advises to use the “XL+probe” or “switch” continuously between “M+ and XL+ probe”, only the XL+ probe was used); and the operator, assisted by an ultrasonic time motion image, located a portion of the liver which is free of large vascular structures (the depth of measurement was between 35-75 mm for the XL+ probe and 25-65 mm for the M+ probe and the explored volume will be 3 cm^3). […] The final stiffness and CAP values was recorded as median values of valid measurements.

For test [4], the system named is NAFLD patients. Nature of the test: Phase IIa study in NAFLD patients: panel of protein biomarkers (proteomics). In kind it is in vivo, human.
Source text: as §1

[5] abbreviates: 50 mg/kg PO QD Day 0-13, normalized to 36B4, Sham 1.00, mean ± SD.

In the case of `CCCCCC(O)/C=C/C=C\C/C=C\CCCCCCC(=O)O` (stereo not shown) [DS109, 15-HETrE], the “Collagen Type 1 relative mRNA expression level” value amounted to 10.76 ± 1.45 in the test with Collagen Type 1 mRNA (5 mg/kg PO QD Day 0-13, normalized to 36B4, Sham 1.00, mean ± SD); 15.23 ± 11.52 in the test on Collagen Type 1 mRNA (setting [5]); 13.88 ± 1.91 in the test with Collagen Type 1 mRNA (250 mg/kg PO QD Day 0-13, normalized to 36B4, Sham 1.00, mean ± SD).
For the molecule 15-HEPE [DS102], the “Collagen Type 1 relative mRNA expression level” value in the test on Collagen Type 1 mRNA (setting [5]) was found to be 11.80 ± 1.78; in the test with Collagen Type 1 mRNA (500 mg/kg PO QD Day 0-13, normalized to 36B4, Sham 1.00, mean ± SD) it was 14.09 ± 2.88. The Sirius red-positive area was found to be 1.70 ± 0.63% in test [1] (50 mg/kg PO QD Day 0-13), 1.06 ± 0.48% in test [1] (250 mg/kg PO QD Day 0-13) and 1.42 ± 0.60% in test [1] (500 mg/kg PO QD Day 0-13). Besides, the “fibrosis area compared with the Vehicle group” value in test [1] (50 mg/kg PO QD Day 0-13) was “no significant difference”; in test [1] (250 mg/kg PO QD Day 0-13), “significant decrease”; in test [1] (500 mg/kg PO QD Day 0-13, 500 mg/kg), “tended to decrease; also recorded: trend approaching significance”. In addition, the “Triglycerides (median placebo-corrected % change from baseline)” value is reported as −40.2% in the test on NAFLD patients [2] (Week 16, Full Analysis Set); −20.4% in the test with NAFLD patients [2] (Week 16, Subgroup: High Triglycerides (>200 mg/dL)); −39.0% in the test with NAFLD patients [2] (Week 16, Subgroup: Triglycerides > Upper Limit Normal (>150 mg/dL)). Also, the “levels of multiple glycerophospholipid groups” value in the test on NAFLD patients [2] (NAFLD patients, 2 g per day) was “significantly increased”. Further, the “levels of multiple hepatotoxic diglycerides” value in the test with NAFLD patients [2] (NAFLD patients, 2 g per day) is “significantly decreased”. The triglyceride levels result in the test with NAFLD patients [2] (NAFLD patients, Week 16) was “lowered”. Besides, the “lipid profile (total cholesterol, VLDL-C, non-HDL-C, RLP cholesterol, triglycerides)” value in the test on NAFLD patients [2] (NAFLD patients, Week 16, safety analysis set) is recorded as “significantly improved”. Moreover, the “hepatic fat content as assessed by CAP” value in the test with NAFLD patients [3] is “reduced”. In addition, the “TR (protein level)” value in the test with NAFLD patients [4] (1 g) is reported as “significant reductions”. Further, the “proteins that passed the 1st threshold based on the Benjamini-Hochberg testing” value in the test with NAFLD patients [4] (1 g group, Placebo group 0 proteins) was 1. Further, the “NASH drug development targets (CCR215 signaling, Galectin3, AOC3)” value with NAFLD patients [4] (2 g) was “decreased”. In the test on NAFLD patients [4] (2 g, Table 21: PAI-1, TIMP-1, DPP4, TLT2, CCL16, MCP-1, SAA4, PI3, TR, LILRB1, TNRSF11A, Table 22: TL12, AOC3, PRSS2), the “inflammatory and pro-fibrotic proteins (protein expression)” value is “decreased”. In the test on NAFLD patients [4] (2 g, panel of greater than 350 protein biomarkers), the “number of markers (inflammation, fibrosis, lipid metabolism, apoptosis, chemotaxis) with significantly downregulated expression” value is “over 150”. The “expression of multiple circulating chemokines” value in the test with NAFLD patients [4] (NAFLD patients, vs placebo) is “decreased”. Further, the “expression of multiple proteins associated with increased cardiovascular risk” value in the test on NAFLD patients [4] (NAFLD patients, vs placebo) is given as “decreased”. For the same molecule, the “expression of multiple tumor necrosis factor receptor superfamily members” value in the test with NAFLD patients [4] (NAFLD patients, vs placebo) is recorded as “decreased”. The “expression of multiple vascular adhesion molecules” value with NAFLD patients [4] (NAFLD patients, vs placebo) is reported as “decreased”.
